Assay results from patent US9834559B2, “4-Amino-6-phenyl-5,6-dihydroimidazo[1,5-a]pyrazin-3(2H)-one derivatives as inhibitors of beta-secretase (BACE)” (Janssen Pharmaceutica NV, priority 2013, dated 2017).

What was measured:
[1] = target: recombinant BACE1 protein (Homo sapiens, UniProt P56817); experiment: BACE1 biochemical FRET based assay; conditions: BACE1 0.04 μg/ml, 20 μM substrate, pH 5.0, 450 min; read-out: Biochemical FRET based assay pIC50 (converted)
From the text: (§1) This assay is a Fluorescence Resonance Energy Transfer Assay (FRET) based assay. The substrate for this assay is an APP derived 13 amino acids peptide that contains the ‘Swedish’ Lys-Met/Asn-Leu mutation of the amyloid precursor protein (APP) beta-secretase cleavage site. This substrate also contains two fluorophores: (7-methoxycoumarin-4-yl) acetic acid (Mca) is a fluorescent donor with excitation wavelength at 320 nm and emission at 405 nm and 2,4-Dinitrophenyl (Dnp) is a proprietary quencher acceptor. […] Upon cleavage by BACE1, the fluorophore Mca is separated from the quenching group Dnp, restoring the full fluorescence yield of the donor. The increase in fluorescence is linearly related to the rate of proteolysis.
Briefly in a 384-well format recombinant BACE1 protein in a final concentration of 0.04 μg/ml is incubated for 450 minutes at room temperature with 20 μM substrate in incubation buffer (50 mM Citrate buffer pH 5.0, 0.05% PEG) in the presence of compound or DMSO. Next the amount of proteolysis is directly measured by fluorescence measurement (excitation at 320 nm and emission at 405 nm) at different incubation times (0, 30, 60, 90, 120 and 450 min). For every experiment a time curve (every 30 min between 0 min and 120 min) is used to determine the time where we find the lowest basal signal of the high control. The signal at this time (Tx) is used to subtract from the signal at 450 min. Results are expressed in RFU, as difference between T450 and Tx.
(§2) A best-fit curve is fitted by a minimum sum of squares method to the plot of % Controlmin versus compound concentration. From this an IC50 value (inhibitory concentration causing 50% inhibition of activity) can be obtained. • LC=Median of the low control values • =Low control: Reaction without enzyme • HC=Median of the High control values • =High Control: Reaction with enzyme • % Effect=100−[(sample−LC)/(HC−LC)*100] • % Control=(sample/HC)*100 • % Controlmin=(sample−LC)/(HC−LC)*100

[2] = tested on: Abeta 1-42 produced and secreted by human neuroblastoma SKNBE2 cells expressing hAPP695; experiment: Cellular αLisa assay in SKNBE2 cells, Abeta 1-42; type: cell-based; conditions: 18 hours incubation, read-out: Cellular αLisa assay in SKNBE2 cells Abeta 42 pIC50 (converted)
Description: (§3) In two αLisa assays the levels of Abeta total and Abeta 1-42 produced and secreted into the medium of human neuroblastoma SKNBE2 cells are quantified. The assay is based on the human neuroblastoma SKNBE2 expressing the wild type Amyloid Precursor Protein (hAPP695). The compounds are diluted and added to these cells, incubated for 18 hours and then measurements of Abeta 1-42 and Abeta total are taken. Abeta total and Abeta 1-42 are measured by sandwich αLisa. αLisa is a sandwich assay using biotinylated antibody AbN/25 attached to streptavidin coated beads and antibody Ab4G8 or cAb42/26 conjugated acceptor beads for the detection of Abeta total and Abeta 1-42 respectively. In the presence of Abeta total or Abeta 1-42, the beads come into close proximity. The excitation of the donor beads provokes the release of singlet oxygen molecules that trigger a cascade of energy transfer in the acceptor beads, resulting in light emission. Light emission is measured after 1 hour incubation (excitation at […] and emission at 615 nm).
as §2, with “cells preincubated” for “Reaction”, “compound, without biotinylated Ab in the αLisa” for “enzyme”, “cells preincubated without compound” for “Reaction with enzyme”

[3] = tested on: Abeta total produced and secreted by human neuroblastoma SKNBE2 cells expressing hAPP695; experiment: Cellular αLisa assay in SKNBE2 cells, Abeta total; type: cell-based; conditions: 18 hours incubation, read-out: Cellular αLisa assay in SKNBE2 cells Abetatotal pIC50 (converted)
Description: as §3
as §2, with “cells preincubated” for “Reaction”, “compound, without biotinylated Ab in the αLisa” for “enzyme”, “cells preincubated without compound” for “Reaction with enzyme”

[4] = target: T1, recombinant BACE2 protein (Homo sapiens, UniProt Q9Y5Z0); experiment: BACE2 biochemical FRET based assay; conditions: BACE2 0.4 μg/ml, 10 μM substrate, pH 5.0, 450 min; read-out: BACE2 Biochemical FRET based assay pIC50 (converted)
T1 sequence (Q9Y5Z0 63-518): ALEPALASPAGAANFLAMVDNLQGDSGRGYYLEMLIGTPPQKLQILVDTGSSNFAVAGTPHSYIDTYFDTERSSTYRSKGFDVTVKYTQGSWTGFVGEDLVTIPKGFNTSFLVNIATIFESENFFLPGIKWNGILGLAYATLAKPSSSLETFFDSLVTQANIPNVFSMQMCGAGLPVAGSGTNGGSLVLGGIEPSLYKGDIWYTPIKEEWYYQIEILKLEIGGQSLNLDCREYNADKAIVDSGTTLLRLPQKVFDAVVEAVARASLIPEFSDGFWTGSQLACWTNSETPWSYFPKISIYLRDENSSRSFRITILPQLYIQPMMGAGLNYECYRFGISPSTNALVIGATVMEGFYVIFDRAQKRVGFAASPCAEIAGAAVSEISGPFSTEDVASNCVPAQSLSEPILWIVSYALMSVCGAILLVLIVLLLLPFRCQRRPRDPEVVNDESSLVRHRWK
From the text: as §1, with “assay” for “assay is an APP derived 13 amino acids peptide that”, “the beta-secretase,” for “BACE1,”
Briefly in a 384-well format recombinant BACE2 protein in a final concentration of 0.4 μg/ml is incubated for 450 minutes at room temperature with 10 μM substrate in incubation buffer (50 mM Citrate buffer pH 5.0, 0.05% PEG, no DMSO) in the absence or presence of compound. Next the amount of proteolysis is directly measured by fluorescence measurement at T=0 and T=450 (excitation at 320 nm and emission at 405 nm). Results are expressed in RFU (Relative Fluorescence Units), as difference between T450 and T0.
as §2

recombinant BACE1 protein, sequence (P56817 46-501): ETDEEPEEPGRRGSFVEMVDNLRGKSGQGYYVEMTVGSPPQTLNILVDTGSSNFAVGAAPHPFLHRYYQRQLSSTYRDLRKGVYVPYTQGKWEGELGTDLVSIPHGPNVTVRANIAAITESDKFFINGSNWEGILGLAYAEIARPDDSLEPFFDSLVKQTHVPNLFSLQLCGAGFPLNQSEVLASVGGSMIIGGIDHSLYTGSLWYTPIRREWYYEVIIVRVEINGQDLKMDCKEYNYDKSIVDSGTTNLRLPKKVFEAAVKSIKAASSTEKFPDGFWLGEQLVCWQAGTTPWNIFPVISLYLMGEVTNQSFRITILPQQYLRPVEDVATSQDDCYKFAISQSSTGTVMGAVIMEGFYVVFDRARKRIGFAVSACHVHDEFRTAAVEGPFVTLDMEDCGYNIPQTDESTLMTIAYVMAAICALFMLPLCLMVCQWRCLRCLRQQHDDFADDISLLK

Work on `Cn1cc2n(c1=O)C[C@@](C)(c1cc(-c3cncnc3)ccc1F)N=C2N` [Compound 2, (6R)-8-Amino-6-(2-fluoro-5-pyrimidin-5-ylphenyl)-2,6-dimethyl-5,6-dihydro-imidazo[1,5-a]pyrazin-3(2H)-one] yielded an IC50 [1] of 490 nM, an IC50 [2] of 1260 nM and an IC50 [3] of 1020 nM. The IC50 [4] was 7080 nM and the melting point was 239.1 °C.

For `COc1cnc(C(=O)Nc2ccc(F)c([C@]3(C)Cn4c(cn(C)c4=O)C(N)=N3)c2)cn1` [Compound 5, N-{3-[(6R)-8-amino-2,6-dimethyl-3-oxo-2,3,5,6-tetrahydroimidazo[1,5-a]pyrazin-6-yl]-4-fluorophenyl}-5-methoxypyrazine-2-carboxamide], the IC50 [1] was 9.55 nM, the IC50 [2] was 36.3 nM and the IC50 [3] was 29.5 nM. It also gave an IC50 [4] of 100 nM.

For `Cn1cc2n(c1=O)C[C@@](C)(c1cc(NC(=O)c3ccc(F)cn3)ccc1F)N=C2N` [Compound 6, N-{3-[(6R)-8-amino-2,6-dimethyl-3-oxo-2,3,5,6-tetrahydroimidazo[1,5-a]pyrazin-6-yl]-4-fluorophenyl}-5-fluoropyridine-2-carboxamide], the IC50 [1] was 15.1 nM, the IC50 [2] was 87.1 nM and the IC50 [3] was 89.1 nM. It also gave an IC50 [4] of 13.2 nM.

`C[C@@]1(c2cc(NC(=O)c3ccc(F)cn3)ccc2F)Cn2c(cn(CC(F)(F)F)c2=O)C(N)=N1` [Compound 7, N-{3-[(6R)-8-amino-6-methyl-3-oxo-2-(2,2,2-trifluoroethyl)-2,3,5,6-tetrahydroimidazo[1,5-a]pyrazin-6-yl]-4-fluorophenyl}-5-fluoropyridine-2-carboxamide] gave an IC50 [1] of 12.3 nM, an IC50 [2] of 18.6 nM and an IC50 [3] of 16.6 nM. It also gave an IC50 [4] of 7.41 nM and a melting point of 239.9 °C.

Compound `C[C@@]1(c2cc(NC(=O)c3ccc(Cl)cn3)ccc2F)Cn2c(cn(CC(F)(F)F)c2=O)C(N)=N1` [Compound 8, N-{3-[(6R)-8-amino-6-methyl-3-oxo-2-(2,2,2-trifluoroethyl)-2,3,5,6-tetrahydroimidazo[1,5-a]pyrazin-6-yl]-4-fluorophenyl}-5-chloropyridine-2-carboxamide] has an IC50 [1] of 4.68 nM, an IC50 [2] of 5.62 nM and an IC50 [3] of 4.79 nM. The IC50 [4] was 6.61 nM and the melting point was 219.9 °C.

Compound `Cc1cc(C#N)cnc1C(=O)Nc1ccc(F)c([C@]2(C)Cn3c(cn(C)c3=O)C(N)=N2)c1` [Compound 9, N-{3-[(6R)-8-amino-2,6-dimethyl-3-oxo-2,3,5,6-tetrahydroimidazo[1,5-a]pyrazin-6-yl]-4-fluorophenyl}-5-cyano-3-methylpyridine-2-carboxamide] has an IC50 [1] of 7.76 nM, an IC50 [2] of 38.9 nM and an IC50 [3] of 33.1 nM. The IC50 [4] was 22.9 nM.

In the case of `C[C@@]1(c2cc(NC(=O)c3ccc(C#N)cn3)ccc2F)Cn2c(cn(CC(F)(F)F)c2=O)C(N)=N1` [Compound 10, N-{3-[(6R)-8-amino-6-methyl-3-oxo-2-(2,2,2-trifluoroethyl)-2,3,5,6-tetrahydroimidazo[1,5-a]pyrazin-6-yl]-4-fluorophenyl}-5-cyanopyridine-2-carboxamide], the IC50 [1] is reported as 5.62 nM, the IC50 [2] is reported as 12.6 nM and the IC50 [3] is reported as 10.7 nM. For the same compound, the IC50 [4] was 12 nM and the melting point was 235 °C.

Work on `COc1cnc(C(=O)Nc2ccc(F)c([C@]3(C)Cn4c(cn(CC(F)(F)F)c4=O)C(N)=N3)c2)cn1` [Compound 11, N-{3-[(6R)-8-amino-6-methyl-3-oxo-2-(2,2,2-trifluoroethyl)-2,3,5,6-tetrahydroimidazo[1,5-a]pyrazin-6-yl]-4-fluorophenyl}-5-methoxypyrazine-2-carboxamide] yielded an IC50 [1] of 8.71 nM, an IC50 [2] of 12.3 nM and an IC50 [3] of 10 nM. It also gave an IC50 [4] of 55 nM and a melting point of 280.5 °C.
